Results on 2 compounds are retold here after ChEMBL document CHEMBL1201862, “PubChem BioAssay data set” (2004).

Experiment in all cases: DTP human tumour cell line panel, 48 h
Experiment [1] relates to SF-295.
Experiment [2] has as its system U-251.
The test system of experiment [3] is DU-145.
Experiment [4] deals with NCI-H226.
The test system of experiment [5] is SNB-75.
Experiment [6] deals with RXF 393.
Experiment [7] concerns CAKI-1.
The subject of experiment [8] is NCI/ADR-RES.
Experiment [9] has as its system HL-60.
Experiment [10] relates to PC-3.
Experiment [11] concerns HCC 2998.
Experiment [12] deals with RPMI-8226.
Experiment [13] deals with COLO 205.
Experiment [14] deals with NCI-H522.
Experiment [15] relates to SF-539.
In experiment [16] the test system is OVCAR-4.
In experiment [17] the test system is M14.
The subject of experiment [18] is TK-10.
Experiment [19] relates to Malme-3M.
Experiment [20] concerns HT-29.

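Compound exposure: 48 hours, 5 concentrations, 96-well plates. The concentration for 50% growth inhibition is given as GI50.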 The source made the active and inactive calls. Cut-off read from the data, not from the text of the source: active = GI50 up to about 1.1 µM and inactive = higher.

As for `CC1(C)CC(=O)c2c(nc(SSc3nc4c(c(-c5ccc(Br)cc5)c3C#N)C(=O)CC(C)(C)C4)c(C#N)c2-c2ccc(Br)cc2)C1`, the GI50 in [1], in [2], in experiment [3], in [4], in experiment [5] and in [6] was > 10 µM (inactive) each time. Besides, the GI50 in experiment [7], in [8], in experiment [9], in experiment [10], in experiment [11] and in experiment [12] was > 10 µM (inactive) in each case. Moreover, the GI50 in [13], in experiment [14], in experiment [15], in experiment [16], in [17] and in [18] was > 10 µM (inactive) each time. Further, the GI50 in experiment [19] and in experiment [20] was > 10 µM (inactive) in each case.
As to `C(=C\c1ccccc1)/C=N/c1nc2cc3sc(/N=C/C=C/c4ccccc4)nc3cc2s1`, the GI50 in [1] was > 78 µM (inactive); in [2], 25 µM (inactive); in experiment [3], > 100 µM (inactive); in [4], 0.813 µM (active); in [5] it was > 100 µM (inactive); in [6], > 100 µM (inactive). The GI50 in experiment [7] is 70.6 µM (inactive); in experiment [8] it was > 100 µM (inactive); in experiment [9] it was 12.1 µM (inactive); in experiment [10], > 79.8 µM (inactive); in [11], > 100 µM (inactive); in [12] it was > 87.7 µM (inactive). Also, the GI50 was 1.06 µM (active) in experiment [13]; 18.2 µM (inactive) in [14]; > 100 µM (inactive) in [15]; > 100 µM (inactive) in [16]; > 100 µM (inactive) in [17]; > 88.9 µM (inactive) in experiment [18]. Further, the values for the GI50 in [19] and in [20] were > 100 µM (inactive) and 30.6 µM (inactive), respectively.
